pEC50: −log10 of the molar value.
biological target: T1, human TREM2 (Homo sapiens, UniProt Q9NZC2); assay: In vitro measurement of TREM2 activity using cellular phosphorylation of spleen tyrosine kinase (Syk), AlphaLisa, HEK293T-hTREM2 cells; assay type: cell-based; details: HEK293T cells expressing human TREM2 and DAP12, 45 min at room temperature, Table D
T1 construct: expressed in transfected cells; host or cells: HEK293T-hTREM2 cells (HEK cell line expressing human TREM2 and DAP12)
Method: In Vitro Measurement of Triggering Receptor Expressed on Myeloid Cells 2 Activity Using Cellular Phosphorylation of Spleen Tyrosine Kinase (“Syk”) Assays
Measurement of TREM2 agonist potency was done using a HEK cell line expressing human TREM2 and DAP12 (HEK293T-hTREM2 cells). Binding of small molecules to, and activation of, TREM2 increases the phosphorylation of Syk. The resultant levels of Syk phosphorylation are measured using a commercial AlphaLisa reagent kit. To perform the assay, HEK-hTREM2 cells were plated at 14,000 cells per well in a 384 well plate, in 25 μL of complete growth media and incubated at 37° C., 5% CO2 for 20-24 hours.
Prior to the assay, test compounds were diluted in the 384 well plates in assay buffer and allowed to equilibrate for 30 minutes. Growth media was removed from cell plates by inversion on blotting paper, and 25 μL of test articles in assay buffer was added to cells. Cells were incubated for 45 minutes at room temperature. After 45 minutes, assay buffer was removed and 10 μL of lysis buffer was added. Plates were shaken for 20 minutes at 350 RPM at room temperature. After complete lysis, AlphaLisa reagents were added to the lysate, and fluourescence intensity was measured using a Perkin Elmer Envision plate reader. Intensities were used to generate a standard curve, and % activation was calculated. Curve fitting was performed using Prism v9 software, log(agonist) vs response—variable slope (four parameters), and EC50s were calculated from the curve fit.
The results presented in Tables D and D-2 have been generated with the in vitro assay described above. This assay may be used to test any of the compounds described herein to assess and characterize a compound's ability to act as an agonist of TREM2.

T1 sequence (Q9NZC2 19-230): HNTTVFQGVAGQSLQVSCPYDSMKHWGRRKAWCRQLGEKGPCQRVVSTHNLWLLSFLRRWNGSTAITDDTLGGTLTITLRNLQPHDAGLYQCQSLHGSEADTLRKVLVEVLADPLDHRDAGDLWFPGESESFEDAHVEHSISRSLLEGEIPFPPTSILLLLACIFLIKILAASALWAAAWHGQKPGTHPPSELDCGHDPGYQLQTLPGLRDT
T1 sequence (O43914 22-113 partner): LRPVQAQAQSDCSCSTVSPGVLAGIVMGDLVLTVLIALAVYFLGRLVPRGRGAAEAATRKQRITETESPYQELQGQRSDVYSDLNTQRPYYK

`C[C@@H]1CCCN1c1nc2nc([C@H]3CCO[C@@H](c4cnn(C5CC5)c4)C3)nc(-c3ccc(F)cc3F)c2n1C` [compound 124, 6-(2,4-difluorophenyl)-7-methyl-2-[(2R,4S)-2-(1-cyclopropylpyrazol-4-yl)tetrahydropyran-4-yl]-8-[(2R)-2-methylpyrrolidin-1-yl]purine] and `C[C@H]1CCCN1c1nc2nc([C@H]3CCO[C@@H](c4cnn(C5CC5)c4)C3)nc(-c3ccc(F)cc3F)c2n1C` [compound 125] fall in the same range of pEC50: 6.30 to 7.30 for the first, 6.30 to 7.30 for the second.

`C[C@@H]1CN(c2nc(-c3ccc(C(F)(F)F)cc3F)c3[nH]c(N(C)C)nc3n2)C[C@H](c2cnn(C3CC3)c2)O1` [compound 126, 2-((2S,6R)-2-(1-cyclopropyl-1H-pyrazol-4-yl)-6-methylmorpholino)-6-(2-fluoro-4-(trifluoromethyl)phenyl)-N,N-dimethyl-9H-purin-8-amine] and `Cn1c(C(F)F)nc2nc([C@H]3CCO[C@@H](c4cnn(C5CC5)c4)C3)nc(-c3ccc(C(F)(F)F)cc3F)c21` [compound 127, 2-[(2R,4S)-2-(1-cyclopropylpyrazol-4-yl)tetrahydropyran-4-yl]-8-(difluoromethyl)-6-[2-fluoro-4-(trifluoromethyl)phenyl]-7-methyl-purine] fall in the same range of pEC50: 6.30 to 7.30 for the first, 6.30 to 7.30 for the second.

`CN(C)c1nc2c(C34CC(C(F)(F)F)(C3)C4)nc([C@H]3CCO[C@@H](c4cnn(C5CC5)c4)C3)nc2n1C` [compound 128, 2-[(2R,4S)-2-(1-cyclopropylpyrazol-4-yl)tetrahydropyran-4-yl]-N,N-9-trimethyl-6-[3-(trifluoromethyl)-1-bicyclo[1.1.1]pentanyl]purin-8-amine] and `CN(C)c1nc2nc([C@H]3CCO[C@@H](c4cnn(C5CC5)c4)C3)nc(C34CC(C(F)(F)F)(C3)C4)c2[nH]1` [compound 129, 2-[(2R,4S)-2-(1-cyclopropylpyrazol-4-yl)tetrahydropyran-4-yl]-N,N-dimethyl-6-[3-(trifluoromethyl)-1-bicyclo[1.1.1]pentanyl]-7H-purin-8-amine] fall in the same range of pEC50: 5.52 to 6.30 for the first, 5.52 to 6.30 for the second.

Compared with `C[C@@H]1CN(c2nc(C34CC(C(F)(F)F)(C3)C4)c3c(n2)nc(N(C)C)n3C)C[C@H](c2cnn(C3CC3)c2)O1` [compound 130, 2-[(2S,6R)-2-(1-cyclopropylpyrazol-4-yl)-6-methyl-morpholin-4-yl]-N,N,7-trimethyl-6-[3-(trifluoromethyl)-1-bicyclo[1.1.1]pentanyl]purin-8-amine], `C[C@@H]1CN(c2cc(-c3ccc(F)cc3F)n3ncnc3n2)C[C@H](c2cnn(C3CC3)c2)O1` [compound 131, (2S,6R)-2-(1-cyclopropyl-1H-pyrazol-4-yl)-4-(7-(2,4-difluorophenyl)-[1,2,4]triazolo[1,5-a]pyrimidin-5-yl)-6-methylmorpholine] is lower in pEC50: no less than 7.30 for the first, 5.52 to 6.30 for the second. The first is the more potent here.

Compared with `Cc1c(F)ccc(-c2cc(N3C[C@@H](C)O[C@@H](c4cnn(C5CC5)c4)C3)nc3ncnn23)c1F` [compound 132, (2S,6R)-2-(1-cyclopropyl-1H-pyrazol-4-yl)-4-(7-(2,4-difluoro-3-methylphenyl)-[1,2,4]triazolo[1,5-a]pyrimidin-5-yl)-6-methylmorpholine], `Cc1cn2c(-c3ccc(Cl)cc3F)nc(N3C[C@@H](C)O[C@@H](c4cnn(C5CC5)c4)C3)cc2n1` [compound 134, (2S,6R)-4-(5-(4-chloro-2-fluorophenyl)-2-methylimidazo[1,2-c]pyrimidin-7-yl)-2-(1-cyclopropyl-1H-pyrazol-4-yl)-6-methylmorpholine] is higher in pEC50: 5.52 to 6.30 for the first, 6.30 to 7.30 for the second. The second is the more potent here.

Compound `Cc1cn2c(-c3ccc(C(F)(F)F)cc3F)nc([C@H]3CCO[C@@H](c4cnn(C5CC5)c4)C3)cc2n1` [compound 133, 7-((2R,4S)-2-(1-cyclopropyl-1H-pyrazol-4-yl)tetrahydro-2H-pyran-4-yl)-5-(2-fluoro-4-(trifluoromethyl)phenyl)-2-methylimidazo[1,2-c]pyrimidine] has a pEC50 of 6.30 to 7.30.

same assay, conditions: HEK293T cells expressing human TREM2 and DAP12, 45 min at room temperature, Table D-2

First: CN1Cc2c(cc(N3CCO[C@@H](c4cnn(C)c4)C3)nc2-c2ccc(Cl)cc2F)C1=O [compound 200]
Second: CN1Cc2c(cc(N3CCO[C@@H](c4cnn(C)c4)C3)nc2-c2ccc(F)cc2F)C1=O [compound 202]
The pEC50 of the first is lower: 4.00 to 5.52 for the first, 5.52 to 6.30 for the second.

First: Cc1cc([C@H]2CN(c3cc4c(c(-c5ccc(Cl)cc5F)n3)CN(C)C4=O)CCO2)ccn1 [compound 201]
Second: Cc1cc([C@H]2CN(c3cc4c(c(-c5ccc(F)cc5F)n3)CN(C)C4=O)CCO2)ccn1 [compound 203]
The pEC50 of the first is higher: 5.52 to 6.30 for the first, 4.00 to 5.52 for the second. The first is the more potent here.

Compared with `CCN1Cc2c(cc(N3CCO[C@@H](c4cnn(C)c4)C3)nc2-c2ccc(Cl)cc2F)C1=O` [compound 204], `CC(C)N1Cc2c(cc(N3CCO[C@@H](c4cnn(C)c4)C3)nc2-c2ccc(Cl)cc2F)C1=O` [compound 205] is lower in pEC50: 6.30 to 7.30 for the first, 5.52 to 6.30 for the second.

`C[C@H]1CN(c2cc3c(c(-c4ccc(Cl)cc4F)n2)CN(C)C3=O)CCO1` [compound 206] and `Cc1cc([C@H]2CN(c3cc4c(c(-c5ccc(Cl)cc5F)n3)CN(C)C4=O)CCO2)cnn1` [compound 217] fall in the same range of pEC50: 5.52 to 6.30 for the first, 5.52 to 6.30 for the second.

`CN1C(=O)c2cc(-c3ccc(Cl)cc3F)nc(N3CCO[C@@H](c4cnn(C)c4)C3)c2C1(C)C` [compound 207] and `CN1C(=O)c2cc(N3CCO[C@@H](c4cnn(C)c4)C3)nc(-c3ccc(Cl)cc3F)c2C1(C)C` [compound 208] fall in the same range of pEC50: 4.00 to 5.52 for the first, 4.00 to 5.52 for the second.

`C[C@@H]1c2c(cc(N3CCO[C@@H](c4cnn(C)c4)C3)nc2-c2ccc(Cl)cc2F)C(=O)N1C` [compound 209] and `Cc1cc([C@H]2CN(c3cc4c(c(-c5ccc(Cl)cc5F)n3)C(C)N(C)C4=O)CCO2)ccn1` (stereo partly drawn) [compound 213] fall in the same range of pEC50: 4.00 to 5.52 for the first, 4.00 to 5.52 for the second.

`CN1Cc2c(cc(-c3ccc(Cl)cc3F)nc2-c2ccc(Cl)cc2F)C1=O` [compound 210] and `C[C@H]1c2c(cc(-c3ccc(Cl)cc3F)nc2-c2ccc(Cl)cc2F)C(=O)N1C` [compound 211] fall in the same range of pEC50: 4.00 to 5.52 for the first, 4.00 to 5.52 for the second.

`CN1Cc2c(cc(N3CCO[C@@H](c4cnn(C5CC5)c4)C3)nc2-c2ccc(Cl)cc2F)C1=O` [compound 212] and `C[C@@H]1CN(c2cc3c(c(-c4ccc(C(F)(F)F)cc4F)n2)CN(C)C3=O)C[C@H](c2cnn(C3CC3)c2)O1` [compound 221] cannot be ordered by pEC50: 6.30 to 7.30 for the first, no less than 7.30 for the second.

`Cc1cc([C@H]2CN(c3cc4c(c(-c5ccc(Cl)cc5F)n3)[C@@H](C)N(C)C4=O)CCO2)ccn1` [compound 214] and `Cc1cc([C@H]2CN(c3cc4c(c(-c5ccc(Cl)cc5F)n3)[C@H](C)N(C)C4=O)CCO2)ccn1` [compound 215] fall in the same range of pEC50: 4.00 to 5.52 for the first, 4.00 to 5.52 for the second.

First: CN1Cc2c(cc(N3CCO[C@@H](c4cnn(C)c4)C3)nc2C2CC(C(F)(F)F)C2)C1=O (stereo partly drawn) [compound 216]
Second: C[C@@H]1CN(c2cc3c(c(C4CC(C(F)(F)F)C4)n2)CN(C)C3=O)C[C@H](c2cnn(C3CC3)c2)O1 (stereo partly drawn) [compound 220]
The pEC50 of the first is lower: 4.00 to 5.52 for the first, 6.30 to 7.30 for the second.

`CN1C(=O)c2cc([C@@H]3CCO[C@H](c4cnn(C5CC5)c4)C3)nc(-c3ccc(F)cc3F)c2C1=O` [compound 218] and `CN1C(=O)c2cc([C@H]3CCO[C@@H](c4cnn(C5CC5)c4)C3)nc(-c3ccc(F)cc3F)c2C1=O` [compound 219] fall in the same range of pEC50: 5.52 to 6.30 for the first, 5.52 to 6.30 for the second.

`CN1Cc2c(cc(C3CCO[C@@H](c4cnn(C5CC5)c4)C3)nc2-c2ccc(C(F)(F)F)cc2F)C1=O` (stereo partly drawn) [compound 222] and `CN1Cc2c(cc([C@@H]3CCO[C@@H](c4cnn(C5CC5)c4)C3)nc2-c2ccc(C(F)(F)F)cc2F)C1=O` [compound 223] fall in the same range of pEC50: 6.30 to 7.30 for the first, 6.30 to 7.30 for the second.

`CN1Cc2c(cc([C@H]3CCO[C@@H](c4cnn(C5CC5)c4)C3)nc2-c2ccc(C(F)(F)F)cc2F)C1=O` [compound 224] and `CN1Cc2c(cc(C3CCO[C@@H](c4cnn(C5CC5)c4)C3)nc2C2CC(C(F)(F)F)C2)C1=O` (stereo partly drawn) [compound 225] fall in the same range of pEC50: 6.30 to 7.30 for the first, 6.30 to 7.30 for the second.

`CN1Cc2c(cc([C@H]3CCO[C@@H](c4cnn(C5CC5)c4)C3)nc2C23CC(C(F)(F)F)(C2)C3)C1=O` [compound 226] and `C[C@@H]1CN(c2cc3c(c(-c4ccc(C(F)(F)F)cc4F)n2)CN(c2ccn(C)n2)C3=O)C[C@H](c2cnn(C3CC3)c2)O1` [compound 228, 6-((2S,6R)-2-(1-cyclopropyl-1H-pyrazol-4-yl)-6-methylmorpholino)-4-(2-fluoro-4-(trifluoromethyl)phenyl)-2-(1-methyl-1H-pyrazol-3-yl)-2,3-dihydro-1H-pyrrolo[3,4-c]pyridin-1-one] cannot be ordered by pEC50: 6.30 to 7.30 for the first, no less than 7.30 for the second.

— patent publication US20260315483A1, “HETEROCYCLIC COMPOUNDS AS TRIGGERING RECEPTOR EXPRESSED ON MYELOID CELLS 2 AGONISTS AND METHODS OF USE” (VIGIL NEUROSCIENCE, INC., priority 2023, published 2026)
